Laboratory results reported in patent US20090088473A1, “METHOD FOR SCREENING OF PROSTAGLANDIN COMPOUNDS COMPRISING AN OPTIMAL FORMULATION FOR THE ENHANCEMENT OF HAIR GROWTH AND THE STIMULATION OF FOLLICULAR ANAGEN AND FORMULATIONS RESULTING THEREFROM” (CAYMAN CHEMICAL COMPANY, priority 2007, published 2009).

Target: T1, human FP receptor (Homo sapiens, UniProt P43088)
T1 construct: expressed in transfected cells; host or cells: HEK 293 (stably transfected)
Assay: Total intracellular inositol phosphate (InsP) accumulation in HEK 293 cells stably transfected with the human FP receptor
Format: cell-based
Conditions: FIG. 2; HEK 293 cells stably transfected with human FP receptor; free acid forms; rank among the prostaglandin analogs tested
Excerpt: An exemplary assay method may be described that correlates the ability of test compounds (FP receptor agonists) to induce hair growth with the ability of an established FP receptor agonist, in this case Bimatoprost free acid, to activate the FP receptor. The dose-dependent release of Inositol triphosphate by test compounds compared to the dose-dependent response of Bimatoprost free acid, an established eye lash-enhancing compound, may provide a structure activity relationship that may be used to predict the degree to which a given compound will promote eye lash growth.

T1 sequence (P43088 whole entry): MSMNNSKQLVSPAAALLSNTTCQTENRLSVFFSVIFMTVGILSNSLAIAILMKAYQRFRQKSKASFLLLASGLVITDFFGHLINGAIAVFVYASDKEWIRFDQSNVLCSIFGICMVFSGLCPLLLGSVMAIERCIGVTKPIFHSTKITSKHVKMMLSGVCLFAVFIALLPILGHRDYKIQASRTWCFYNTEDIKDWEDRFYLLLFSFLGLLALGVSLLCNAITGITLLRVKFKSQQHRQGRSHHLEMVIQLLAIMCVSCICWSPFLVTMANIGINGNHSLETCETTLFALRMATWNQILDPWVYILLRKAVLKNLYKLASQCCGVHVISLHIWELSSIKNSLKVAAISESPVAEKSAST

Compound | dose-dependent release of inositol triphosphate
O=C(O)CCCC=CCC1C(O)CC(O)C1C=CC(O)COc1ccccc1 (stereo not drawn) [16-phenoxy tetranor PGF2α analog, 16-phenoxy tetranor PGF2α] | highest
O=C(O)CCC/C=C\C[C@@H]1[C@@H](/C=C/[C@@H](O)COc2cccc(C(F)(F)F)c2)[C@H](O)C[C@@H]1O [(+) fluprestonol] | lowest
